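These data come from cells grown in 96-well plates and exposed to compound for 48 hours at five concentrations. The concentration for 50% growth inhibition is given as GI50.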 The source made the active and inactive calls. No stated cut-off is given here; in the data, active = GI50 up to about 1.1 µM and inactive = higher.
Columns and labels:
Assay in all cases: DTP human tumour cell line panel, 48 h
EKVX = system: EKVX
MDA-MB-231 = system: MDA-MB-231
NCI-H522 = system: NCI-H522
KM12 = system: KM12
Hs-578T = system: Hs-578T
SNB-19 = system: SNB-19
OVCAR-4 = system: OVCAR-4
HCT-15 = system: HCT-15
COLO 205 = system: COLO 205
BT-549 = system: BT-549
NCI-H23 = system: NCI-H23
SF-268 = system: SF-268
UACC-257 = system: UACC-257
U-251 = system: U-251
SK-MEL-28 = system: SK-MEL-28
ACHN = system: ACHN
DU-145 = system: DU-145
HOP-62 = system: HOP-62
SR = system: SR
SNB-75 = system: SNB-75
RXF 393 = system: RXF 393
UACC-62 = system: UACC-62
A549 = system: A549
OVCAR-8 = system: OVCAR-8
TK-10 = system: TK-10
MOLT-4 = system: MOLT-4
CAKI-1 = system: CAKI-1
MDA-MB-435 = system: MDA-MB-435
HCT-116 = system: HCT-116
SF-295 = system: SF-295
NCI-H226 = system: NCI-H226
HOP-92 = system: HOP-92
HT-29 = system: HT-29
SK-MEL-5 = system: SK-MEL-5
IGROV-1 = system: IGROV-1
PC-3 = system: PC-3
NCI/ADR-RES = system: NCI/ADR-RES
Malme-3M = system: Malme-3M
SK-MEL-2 = system: SK-MEL-2
OVCAR-3 = system: OVCAR-3
M14 = system: M14
LOX IMVI = system: LOX IMVI
A498 = system: A498
MCF7 = system: MCF7
786-0 = system: 786-0
HCC 2998 = system: HCC 2998
SK-OV-3 = system: SK-OV-3
SF-539 = system: SF-539
SN12C = system: SN12C
SW-620 = system: SW-620
T47D = system: T47D
RPMI-8226 = system: RPMI-8226
CCRF-CEM = system: CCRF-CEM
UO-31 = system: UO-31
OVCAR-5 = system: OVCAR-5
NCI-H460 = system: NCI-H460
K562 = system: K562
MDA-N = system: MDA-N
HL-60 = system: HL-60

With COC(=O)/C(=C(/C)c1ccco1)P(=O)(OC)OC the GI50 (EKVX) was > 100 µM (inactive), the GI50 (MDA-MB-231) was > 100 µM (inactive) and the GI50 (NCI-H522) was > 100 µM (inactive). The GI50 (KM12) was > 100 µM (inactive), the GI50 (Hs-578T) was > 100 µM (inactive) and the GI50 (SNB-19) was > 100 µM (inactive). For the same compound, the GI50 (OVCAR-4) was > 100 µM (inactive), the GI50 (HCT-15) was greater than 100 µM and the GI50 (COLO 205) was > 100 µM (inactive). The GI50 (BT-549) was > 100 µM (inactive), the GI50 (NCI-H23) was > 100 µM (inactive) and the GI50 (SF-268) was > 100 µM (inactive). The GI50 (UACC-257) was > 100 µM (inactive), the GI50 (U-251) was > 100 µM (inactive) and the GI50 (SK-MEL-28) was > 100 µM (inactive). For the same compound, the GI50 (ACHN) was > 100 µM (inactive), the GI50 (DU-145) was > 100 µM (inactive) and the GI50 (HOP-62) was > 100 µM (inactive). The GI50 (SR) was > 100 µM (inactive), the GI50 (SNB-75) was > 100 µM (inactive) and the GI50 (RXF 393) was > 100 µM (inactive). The GI50 (UACC-62) was > 100 µM (inactive), the GI50 (A549) was > 100 µM (inactive) and the GI50 (OVCAR-8) was > 100 µM (inactive). For the same compound, the GI50 (TK-10) was > 100 µM (inactive), the GI50 (MOLT-4) was > 100 µM (inactive) and the GI50 (CAKI-1) was > 100 µM (inactive). For the same compound, the GI50 (MDA-MB-435) was > 100 µM (inactive), the GI50 (HCT-116) was > 100 µM (inactive) and the GI50 (SF-295) was > 100 µM (inactive). For the same compound, the GI50 (NCI-H226) was > 100 µM (inactive), the GI50 (HOP-92) was > 100 µM (inactive) and the GI50 (HT-29) was > 100 µM (inactive). The GI50 (SK-MEL-5) was > 100 µM (inactive), the GI50 (IGROV-1) was > 100 µM (inactive) and the GI50 (PC-3) was > 100 µM (inactive). For the same compound, the GI50 (NCI/ADR-RES) was > 100 µM (inactive), the GI50 (Malme-3M) was > 100 µM (inactive) and the GI50 (SK-MEL-2) was > 100 µM (inactive). For the same compound, the GI50 (OVCAR-3) was > 100 µM (inactive), the GI50 (M14) was > 100 µM (inactive) and the GI50 (LOX IMVI) was > 100 µM (inactive). For the same compound, the GI50 (A498) was > 100 µM (inactive), the GI50 (MCF7) was > 100 µM (inactive) and the GI50 (786-0) was > 100 µM (inactive). The GI50 (HCC 2998) was > 100 µM (inactive), the GI50 (SK-OV-3) was > 100 µM (inactive) and the GI50 (SF-539) was > 100 µM (inactive). For the same compound, the GI50 (SN12C) was > 100 µM (inactive), the GI50 (SW-620) was > 100 µM (inactive) and the GI50 (T47D) was > 100 µM (inactive). The GI50 (RPMI-8226) was > 100 µM (inactive), the GI50 (CCRF-CEM) was > 100 µM (inactive) and the GI50 (UO-31) was 0.01 µM (active). The GI50 (OVCAR-5) was > 100 µM (inactive).

For COC(=O)CCC1(O)C=CC(=O)C=C1, the GI50 (EKVX) was > 100 µM (inactive), the GI50 (MDA-MB-231) was > 100 µM (inactive) and the GI50 (NCI-H522) was 14.1 µM (inactive). For the same compound, the GI50 (KM12) was > 100 µM (inactive), the GI50 (Hs-578T) was 29.4 µM (inactive) and the GI50 (SNB-19) was 37.8 µM (inactive). For the same compound, the GI50 (OVCAR-4) was 65.8 µM (inactive), the GI50 (HCT-15) was 18.4 µM and the GI50 (COLO 205) was 17.6 µM (inactive). The GI50 (BT-549) was 58.5 µM (inactive), the GI50 (NCI-H23) was 33.7 µM (inactive) and the GI50 (SF-268) was 29.6 µM (inactive). For the same compound, the GI50 (UACC-257) was 17.1 µM (inactive), the GI50 (U-251) was 21.1 µM (inactive) and the GI50 (SK-MEL-28) was 23.2 µM (inactive). For the same compound, the GI50 (ACHN) was 51.6 µM (inactive), the GI50 (DU-145) was 36.8 µM (inactive) and the GI50 (HOP-62) was > 100 µM (inactive). For the same compound, the GI50 (SR) was 25 µM (inactive), the GI50 (SNB-75) was > 100 µM (inactive) and the GI50 (NCI-H460) was 28.2 µM (inactive). For the same compound, the GI50 (RXF 393) was 23.6 µM (inactive), the GI50 (UACC-62) was 20.3 µM (inactive) and the GI50 (A549) was > 100 µM (inactive). For the same compound, the GI50 (OVCAR-8) was 31.7 µM (inactive), the GI50 (TK-10) was 36.7 µM (inactive) and the GI50 (MOLT-4) was 37.7 µM (inactive). The GI50 (CAKI-1) was 16.6 µM (inactive), the GI50 (MDA-MB-435) was > 100 µM (inactive) and the GI50 (HCT-116) was 34 µM (inactive). For the same compound, the GI50 (SF-295) was > 100 µM (inactive), the GI50 (NCI-H226) was > 100 µM (inactive) and the GI50 (HOP-92) was 65.6 µM (inactive). For the same compound, the GI50 (HT-29) was 36.7 µM (inactive), the GI50 (SK-MEL-5) was 31.9 µM (inactive) and the GI50 (IGROV-1) was 20.6 µM (inactive). The GI50 (PC-3) was > 100 µM (inactive), the GI50 (NCI/ADR-RES) was 31.3 µM (inactive) and the GI50 (Malme-3M) was 17 µM (inactive). For the same compound, the GI50 (SK-MEL-2) was > 100 µM (inactive), the GI50 (OVCAR-3) was 24.4 µM (inactive) and the GI50 (M14) was 40.8 µM (inactive). The GI50 (K562) was 38.9 µM (inactive), the GI50 (LOX IMVI) was 30.3 µM (inactive) and the GI50 (A498) was > 100 µM (inactive). For the same compound, the GI50 (MDA-N) was 63.4 µM (inactive), the GI50 (MCF7) was 38.3 µM (inactive) and the GI50 (786-0) was 36.4 µM (inactive). The GI50 (HCC 2998) was 63.5 µM (inactive), the GI50 (SF-539) was 25.8 µM (inactive) and the GI50 (SN12C) was 57.1 µM (inactive). For the same compound, the GI50 (SW-620) was 29.8 µM (inactive), the GI50 (RPMI-8226) was 31.7 µM (inactive) and the GI50 (CCRF-CEM) was 43.4 µM (inactive). For the same compound, the GI50 (UO-31) was 55 µM (inactive) and the GI50 (OVCAR-5) was > 100 µM (inactive).

In the case of O=P(O)(O)C(NCC(O)CN1CCOCC1)P(=O)(O)O (stereo unspecified), the GI50 (EKVX) was > 100 µM (inactive), the GI50 (MDA-MB-231) was > 100 µM (inactive) and the GI50 (NCI-H522) was > 100 µM (inactive). The GI50 (KM12) was > 100 µM (inactive), the GI50 (Hs-578T) was 10.2 µM (inactive) and the GI50 (SNB-19) was > 100 µM (inactive). For the same compound, the GI50 (HCT-15) was greater than 100 µM, the GI50 (COLO 205) was > 100 µM (inactive) and the GI50 (BT-549) was > 100 µM (inactive). The GI50 (NCI-H23) was > 100 µM (inactive), the GI50 (SF-268) was > 100 µM (inactive) and the GI50 (UACC-257) was > 100 µM (inactive). For the same compound, the GI50 (U-251) was > 100 µM (inactive), the GI50 (SK-MEL-28) was > 100 µM (inactive) and the GI50 (ACHN) was > 100 µM (inactive). The GI50 (DU-145) was > 100 µM (inactive), the GI50 (HOP-62) was > 100 µM (inactive) and the GI50 (SR) was > 100 µM (inactive). For the same compound, the GI50 (SNB-75) was > 100 µM (inactive), the GI50 (NCI-H460) was > 100 µM (inactive) and the GI50 (RXF 393) was > 100 µM (inactive). The GI50 (UACC-62) was > 100 µM (inactive), the GI50 (A549) was > 100 µM (inactive) and the GI50 (OVCAR-8) was > 100 µM (inactive). The GI50 (TK-10) was > 100 µM (inactive), the GI50 (MOLT-4) was > 100 µM (inactive) and the GI50 (CAKI-1) was > 100 µM (inactive). The GI50 (MDA-MB-435) was > 100 µM (inactive), the GI50 (HCT-116) was > 100 µM (inactive) and the GI50 (SF-295) was > 100 µM (inactive). The GI50 (NCI-H226) was > 100 µM (inactive), the GI50 (HOP-92) was > 100 µM (inactive) and the GI50 (HT-29) was > 100 µM (inactive). The GI50 (SK-MEL-5) was > 100 µM (inactive), the GI50 (IGROV-1) was > 100 µM (inactive) and the GI50 (PC-3) was > 100 µM (inactive). The GI50 (NCI/ADR-RES) was > 100 µM (inactive), the GI50 (Malme-3M) was > 100 µM (inactive) and the GI50 (HL-60) was > 100 µM (inactive). For the same compound, the GI50 (OVCAR-3) was > 100 µM (inactive), the GI50 (M14) was > 100 µM (inactive) and the GI50 (K562) was > 100 µM (inactive). For the same compound, the GI50 (LOX IMVI) was > 100 µM (inactive), the GI50 (A498) was > 100 µM (inactive) and the GI50 (MDA-N) was > 100 µM (inactive). The GI50 (MCF7) was > 100 µM (inactive), the GI50 (786-0) was > 100 µM (inactive) and the GI50 (HCC 2998) was > 100 µM (inactive). For the same compound, the GI50 (SK-OV-3) was > 100 µM (inactive), the GI50 (SF-539) was > 100 µM (inactive) and the GI50 (SW-620) was > 100 µM (inactive). The GI50 (RPMI-8226) was > 100 µM (inactive), the GI50 (CCRF-CEM) was > 100 µM (inactive) and the GI50 (UO-31) was > 100 µM (inactive). The GI50 (OVCAR-5) was > 100 µM (inactive).

From ChEMBL document CHEMBL1201862, “PubChem BioAssay data set” (2004)
